{"source": "patent US8575135B2", "about": "(Gilead Sciences, Inc., priority 2011, dated 2013)", "test_in_all_cases": "microbe, parasite or virus in culture", "key": {"[1]": {"system": "stable HCV 1a RLuc replicon cells (genotype 1a H77 replicon)", "assay_type": "cell-based", "settings": "Hepatitis C virus", "experimental": "(§1) Evaluation of Cell-Based Anti-HCV Activity:\n(§2) Antiviral potency (EC50) was determined using a Renilla luciferase (RLuc)-based HCV replicon reporter assay. […] To perform the assay for genotype 2a (with M31 present in NS5A) or 2b, NS5A chimeric genotype 2a JFH-1 replicons that encodes a RLuc-Neo reporter and either genotype 2a J6 strain NS5A gene or genotype 2b MD2b-1 strain NS5A gene (both with M31 present) respectively, were either transiently transfected (t) into Huh-Lunet cells or were established as stably replicating replicon cells (s) is provided. Either cells were dispensed into 384-well plates for EC50 assays. To perform the assay for genotype 3 and 4, NS5A chimeric genotype 1b Con1 replicons that encodes a Pi-RLuc reporter and either genotype 3a S52 strain NS5A gene or genotype 4a ED43 strain NS5A gene respectively, were transiently transfected (t) into Huh-Lunet cells, which were subsequently dispensed into 384-well plates. Compounds were dissolved in DMSO at a concentration of 10 mM and diluted in DMSO either manually or using an automated pipeting instrument. Serially 3-fold diluted compounds were either manually mixed with cell culture media and added to the seeded cells or directly added to the cells using an automated instrument. […] 72 hours later, cells were lysed and Renilla luciferase activity quantified as recommended by the manufacturer (Promega-Madison, Wis.). Non-linear regression was performed to calculate EC50 values."}, "[2]": {"system": "stable HCV 2a JFH-1 Rluc replicon cells (L31 present in NS5A)", "assay_type": "cell-based", "settings": "Hepatitis C virus"}, "[3]": {"system": "NS5A chimeric genotype 2a JFH-1 replicon with genotype 2b MD2b-1 strain NS5A gene (M31 present)", "assay_type": "cell-based, HCV", "settings": "Hepatitis C virus", "experimental": "as §1, §2"}, "[4]": {"system": "NS5A chimeric genotype 2a JFH-1 replicon with genotype 2a J6 strain NS5A gene (M31 present)", "assay_type": "cell-based, HCV", "settings": "Hepatitis C virus", "experimental": "as §1, §2"}, "[5]": {"system": "NS5A chimeric genotype 1b Con1 replicon with genotype 3a S52 strain NS5A gene", "assay_type": "cell-based, HCV", "settings": "Hepatitis C virus, read-out: 3a (nM)", "experimental": "as §1, §2"}}, "note": "Like-named read-outs stand apart in the source and are kept apart here."}
{"smiles": "CC[C@@H](C)[C@H](NC(=O)OC)C(=O)N1C[C@@H](COC)C[C@H]1c1ncc(-c2ccc3c(c2)COc2cc4c(ccc5nc([C@@H]6CC[C@H](C)N6C(=O)[C@@H](NC(=O)OC)C(C)C)[nH]c54)cc2-3)[nH]1", "note": "[Example OG, Methyl {(2S)-1-[(2S,5S)-2-(9-{2-[(2S,4S)-1-[N-(methoxycarbonyl)-L-alloisoleucyl]-4-(methoxymethyl)pyrrolidin-2-yl]-1H-imidazol-5-yl}-1,11-dihydroisochromeno[4′,3′:6,7]naphtho[1,2-d]imidazol-2-yl)-5-methylpyrrolidin-1-yl]-3-methyl-1-oxobutan-2-yl}carbamate]", "values": [{"measurement": "EC50", "setting": "[1]; read-out: 1a", "value": "< 1", "unit": "nM"}, {"measurement": "EC50", "setting": "[1]; read-out: 1a (nM)", "value": 0.009, "unit": "nM"}, {"measurement": "EC50", "setting": "[2]; read-out: 2a JFH", "value": "< 1", "unit": "nM"}, {"measurement": "EC50", "setting": "[2]; read-out: 2a JFH (nM)", "value": 0.008, "unit": "nM"}, {"measurement": "EC50", "setting": "[3]; read-out: 2b", "value": "< 1", "unit": "nM"}, {"measurement": "EC50", "setting": "[3]; read-out: 2b (t) (nM)", "value": 0.437, "unit": "nM"}, {"measurement": "EC50", "setting": "[4]; read-out: 2a J6", "value": "< 1", "unit": "nM"}, {"measurement": "EC50", "setting": "[4]; read-out: 2a Jb (t) (nM)", "value": 0.601, "unit": "nM"}]}
{"smiles": "COC[C@H]1C[C@@H](c2ncc(-c3ccc4c(c3)COc3cc5c(ccc6nc([C@@H]7CCCN7C(=O)[C@@H](NC(=O)OC)C(C)C)[nH]c65)cc3-4)[nH]2)N(C(=O)[C@H](N)c2ccccc2)C1", "note": "[Example OL, Methyl {(2S)-1-[(2S)-2-(9-{2-[(2S,4S)-[(2R)-2-amino-2-phenylacetyl]-4-(methoxymethyl)pyrrolidin-2-yl]-1H-imidazol-5-yl}-1,11-dihydroisochromeno[4′,3′:6,7]naphtho[1,2-d]imidazol-2-yl)pyrrolidin-1-yl]-3-methyl-1-oxobutan-2-yl}carbamate]", "values": [{"measurement": "EC50", "setting": "[1]; read-out: 1a", "value": "< 1", "unit": "nM"}, {"measurement": "EC50", "setting": "[1]; read-out: 1a (nM)", "value": 0.047, "unit": "nM"}, {"measurement": "EC50", "setting": "[2]; read-out: 2a JFH", "value": "< 1", "unit": "nM"}, {"measurement": "EC50", "setting": "[2]; read-out: 2a JFH (nM)", "value": 0.012, "unit": "nM"}, {"measurement": "EC50", "setting": "[3]; read-out: 2b", "value": "< 1", "unit": "nM"}, {"measurement": "EC50", "setting": "[3]; read-out: 2b (s) (nM)", "value": 0.052, "unit": "nM"}, {"measurement": "EC50", "setting": "[3]; read-out: 2b (t) (nM)", "value": 0.052, "unit": "nM"}, {"measurement": "EC50", "setting": "[4]; read-out: 2a J6", "value": "< 1", "unit": "nM"}, {"measurement": "EC50", "setting": "[4]; read-out: 2a Jb (t) (nM)", "value": 0.07, "unit": "nM"}]}
{"smiles": "CC[C@H](C)[C@H](NC(=O)OC)C(=O)N1[C@@H](C)CC[C@H]1c1ncc(-c2ccc3c(c2)COc2cc4c(ccc5nc([C@@H]6C[C@H](COC)CN6C(=O)[C@@H](NC(=O)OC)C(C)C)[nH]c54)cc2-3)[nH]1", "note": "[Example OX, Methyl {(2S)-1-[(2S,4S)-2-(9-{2-[(2S,5S)-1-{(2S,3S)-2-[(methoxycarbonyl)amino]-3-methylpentanoyl}-5-methylpyrrolidin-2-yl]-1H-imidazol-5-yl}-1,11-dihydroisochromeno[4′,3′:6,7]naphtho[1,2-d]imidazol-2-yl)-4-(methoxymethyl)pyrrolidin-1-yl]-3-methyl-1-oxobutan-2-yl}carbamate]", "values": [{"measurement": "EC50", "setting": "[1]; read-out: 1a", "value": "< 1", "unit": "nM"}, {"measurement": "EC50", "setting": "[1]; read-out: 1a (nM)", "value": 0.007, "unit": "nM"}, {"measurement": "EC50", "setting": "[2]; read-out: 2a JFH", "value": "< 1", "unit": "nM"}, {"measurement": "EC50", "setting": "[2]; read-out: 2a JFH (nM)", "value": 0.006, "unit": "nM"}, {"measurement": "EC50", "setting": "[3]; read-out: 2b", "value": "< 1", "unit": "nM"}, {"measurement": "EC50", "setting": "[3]; read-out: 2b (t) (nM)", "value": 0.107, "unit": "nM"}, {"measurement": "EC50", "setting": "[4]; read-out: 2a J6", "value": "< 1", "unit": "nM"}, {"measurement": "EC50", "setting": "[4]; read-out: 2a Jb (t) (nM)", "value": 0.113, "unit": "nM"}]}
{"smiles": "COC(=O)N[C@H](C(=O)N1C[C@@H](COC(F)F)C[C@H]1c1nc2ccc3cc4c(cc3c2[nH]1)OCc1cc(-c2cnc([C@@H]3CC[C@H](C)N3C(=O)[C@@H](NC(=O)OC)C(C)C)[nH]2)ccc1-4)C(C)C", "note": "[Example PS, methyl {(2S)-1-[(2S,5S)-2-(5-{2-[(2S,4S)-4-[(difluoromethoxy)methyl]-1-{(2S)-2-[(methoxycarbonyl)amino]-3-methylbutanoyl}pyrrolidin-2-yl]-1,11-dihydroisochromeno[4′,3′:6,7]naphtho[1,2-d]imidazol-9-yl}-1H-imidazol-2-yl)-5-methylpyrrolidin-1-yl]-3-methyl-1-oxobutan-2-yl}carbamate]", "values": [{"measurement": "EC50", "setting": "[1]; read-out: 1a", "value": "< 1", "unit": "nM"}, {"measurement": "EC50", "setting": "[1]; read-out: 1a (nM)", "value": 0.005, "unit": "nM"}, {"measurement": "EC50", "setting": "[2]; read-out: 2a JFH", "value": "< 1", "unit": "nM"}, {"measurement": "EC50", "setting": "[2]; read-out: 2a JFH (nM)", "value": 0.004, "unit": "nM"}, {"measurement": "EC50", "setting": "[3]; read-out: 2b", "value": "< 1", "unit": "nM"}, {"measurement": "EC50", "setting": "[3]; read-out: 2b (t) (nM)", "value": 0.113, "unit": "nM"}, {"measurement": "EC50", "setting": "[4]; read-out: 2a J6", "value": "< 1", "unit": "nM"}, {"measurement": "EC50", "setting": "[4]; read-out: 2a Jb (t) (nM)", "value": 0.077, "unit": "nM"}, {"measurement": "EC50", "setting": "[5]", "value": 44.4, "unit": "nM"}]}
{"smiles": "COC(=O)N[C@H](C(=O)N1C[C@@H](COC(F)F)C[C@H]1c1ncc(-c2ccc3c(c2)COc2cc4c(ccc5nc([C@@H]6CC[C@H](C)N6C(=O)[C@@H](NC(=O)OC)C(C)C)[nH]c54)cc2-3)[nH]1)C(C)C", "note": "[Example PT, methyl {(2S)-1-[(2S,4S)-4-[(difluoromethoxy)methyl]-2-(5-{2-[(2S,5S)-1-{(2S)-2-[(methoxycarbonyl)amino]-3-methylbutanoyl}-5-methylpyrrolidin-2-yl]-1,11-dihydroisochromeno[4′,3′:6,7]naphtho[1,2-d]imidazol-9-yl}-1H-imidazol-2-yl)pyrrolidin-1-yl]-3-methyl-1-oxobutan-2-yl}carbamate]", "values": [{"measurement": "EC50", "setting": "[1]; read-out: 1a", "value": "< 1", "unit": "nM"}, {"measurement": "EC50", "setting": "[1]; read-out: 1a (nM)", "value": 0.007, "unit": "nM"}, {"measurement": "EC50", "setting": "[2]; read-out: 2a JFH", "value": "< 1", "unit": "nM"}, {"measurement": "EC50", "setting": "[2]; read-out: 2a JFH (nM)", "value": 0.007, "unit": "nM"}, {"measurement": "EC50", "setting": "[3]; read-out: 2b", "value": "< 1", "unit": "nM"}, {"measurement": "EC50", "setting": "[3]; read-out: 2b (t) (nM)", "value": 0.182, "unit": "nM"}, {"measurement": "EC50", "setting": "[4]; read-out: 2a J6", "value": "< 1", "unit": "nM"}, {"measurement": "EC50", "setting": "[4]; read-out: 2a Jb (t) (nM)", "value": 0.383, "unit": "nM"}]}
{"smiles": "COC[C@H]1C[C@@H](c2ncc(-c3ccc4c(c3)COc3cc5c(ccc6nc([C@@H]7C[C@H](COC(F)F)CN7C(=O)[C@@H](NC(=O)OC)C(C)C)[nH]c65)cc3-4)[nH]2)N(C(=O)[C@@H](NC(=O)OC)C(C)C)C1", "note": "[Example PU, methyl {(2S)-1-[(2S,4S)-2-(5-{2-[(2S,4S)-4-[(difluoromethoxy)methyl]-1-{(2S)-2-[(methoxycarbonyl)amino]-3-methylbutanoyl}pyrrolidin-2-yl]-1,11-dihydroisochromeno[4′,3′:6,7]naphtho[1,2-d]imidazol-9-yl}-1H-imidazol-2-yl)-4-(methoxymethyl)pyrrolidin-1-yl]-3-methyl-1-oxobutan-2-yl}carbamate]", "values": [{"measurement": "EC50", "setting": "[1]; read-out: 1a", "value": "< 1", "unit": "nM"}, {"measurement": "EC50", "setting": "[1]; read-out: 1a (nM)", "value": 0.012, "unit": "nM"}, {"measurement": "EC50", "setting": "[2]; read-out: 2a JFH", "value": "< 1", "unit": "nM"}, {"measurement": "EC50", "setting": "[2]; read-out: 2a JFH (nM)", "value": 0.006, "unit": "nM"}, {"measurement": "EC50", "setting": "[3]; read-out: 2b", "value": "< 1", "unit": "nM"}, {"measurement": "EC50", "setting": "[3]; read-out: 2b (t) (nM)", "value": 0.442, "unit": "nM"}, {"measurement": "EC50", "setting": "[4]; read-out: 2a J6", "value": "< 1", "unit": "nM"}, {"measurement": "EC50", "setting": "[4]; read-out: 2a Jb (t) (nM)", "value": 0.068, "unit": "nM"}]}
